# Values quoted from earlier work, collected in US11759449B2, “Methods for reducing oxidative effects of free radicals” (Hugg LLC, priority 2021, dated 2023).
# Key:
# [1] = background, refs (2, 3)
# [2] = background, refs (2, 3); remark: listed apart in the source
compound,measurement,setting,value
Oc1ccc(C=Cc2cc(O)cc(O)c2)cc1 [resveratrol],solubility,[1],poor
same,bioavailability,[2],poor
